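Exposure lasted 48 hours, with cells grown in 96-well plates and compounds tested at five concentrations. GI50 is the concentration that inhibits growth by half.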 Active and inactive are the calls of the source. No stated cut-off is given here; in the data, active = GI50 up to about 1.1 µM and inactive = higher.
How the values were obtained:
Test in all cases: inhibition of tumour cell growth, NCI panel, 48 h
[1] = test system: 786-0
[2] = test system: A498
[3] = test system: ACHN
[4] = test system: CAKI-1
[5] = test system: COLO 205
[6] = test system: DMS-114
[7] = test system: DMS-273
[8] = test system: EKVX
[9] = test system: HCC 2998
[10] = test system: HCT-116
[11] = test system: HCT-15
[12] = test system: HOP-18
[13] = test system: HOP-62
[14] = test system: HOP-92
[15] = test system: HT-29
[16] = test system: IGROV-1
[17] = test system: K562
[18] = test system: KM-20L2
[19] = test system: KM12
[20] = test system: LOX IMVI
[21] = test system: LXFL 529
[22] = test system: M14
[23] = test system: Malme-3M
[24] = test system: NCI-H226
[25] = test system: NCI-H23
[26] = test system: NCI-H460
[27] = test system: NCI-H522
[28] = test system: OVCAR-3
[29] = test system: OVCAR-4
[30] = test system: OVCAR-5
[31] = test system: OVCAR-8
[32] = test system: RPMI-8226
[33] = test system: RXF 393
[34] = test system: SF-268
[35] = test system: SF-295
[36] = test system: SF-539
[37] = test system: SK-MEL-28
[38] = test system: SK-MEL-2
[39] = test system: SK-MEL-5
[40] = test system: SK-OV-3
[41] = test system: SN12C
[42] = test system: SNB-19
[43] = test system: SNB-75
[44] = test system: SNB-78
[45] = test system: SW-620
[46] = test system: TK-10
[47] = test system: U-251
[48] = test system: UACC-257
[49] = test system: UACC-62
[50] = test system: UO-31
[51] = test system: A549
[52] = test system: BT-549
[53] = test system: CCRF-CEM
[54] = test system: DU-145
[55] = test system: HL-60
[56] = test system: Hs-578T
[57] = test system: MCF7
[58] = test system: MDA-MB-231
[59] = test system: MDA-MB-435
[60] = test system: MDA-N
[61] = test system: MOLT-4
[62] = test system: NCI/ADR-RES
[63] = test system: PC-3
[64] = test system: SR
[65] = test system: T47D
[66] = test system: M19-MEL

Question: With `COc1ccc(NC(=O)C2C(=O)N(c3ccc(OC)cc3)C(=O)/C2=N\NC(N)=O)cc1` (centres undefined) as the compound, how does the GI50 [1] read?
Answer: Its GI50 is 21.5 µM (inactive).

Question: What about the GI50 [2] of the same compound?
Answer: The GI50 was 22.1 µM (inactive).

Question: And the GI50 [3]?
Answer: Its GI50 is 27.6 µM (inactive).

Question: What about the GI50 [4] of the same compound?
Answer: Its GI50 is > 100 µM (inactive).

Question: And the GI50 [5]?
Answer: The GI50 was > 100 µM (inactive).

Question: And the GI50 [6]?
Answer: Its GI50 is 63.7 µM (inactive).

Question: What about the GI50 [7] of the same compound?
Answer: The GI50 was 43.6 µM (inactive).

Question: What about the GI50 [8] of the same compound?
Answer: The GI50 was 40.6 µM (inactive).

Question: What about the GI50 [9] of the same compound?
Answer: Its GI50 is 30.9 µM (inactive).

Question: What about the GI50 [10] of the same compound?
Answer: The GI50 was 21.2 µM (inactive).

Question: What about the GI50 [11] of the same compound?
Answer: Its GI50 is over 100 µM.

Question: And the GI50 [12]?
Answer: The GI50 was 21.2 µM (inactive).

Question: And the GI50 [13]?
Answer: Its GI50 is 16.3 µM (inactive).

Question: What about the GI50 [14] of the same compound?
Answer: The GI50 was 31.3 µM (inactive).

Question: And the GI50 [15]?
Answer: The GI50 was 58.6 µM (inactive).

Question: And the GI50 [16]?
Answer: The GI50 was 19.7 µM (inactive).

Question: What about the GI50 [17] of the same compound?
Answer: Its GI50 is > 100 µM (inactive).

Question: What about the GI50 [18] of the same compound?
Answer: The GI50 was 49.5 µM (inactive).

Question: And the GI50 [19]?
Answer: Its GI50 is 20.3 µM (inactive).

Question: What about the GI50 [20] of the same compound?
Answer: The GI50 was 65.8 µM (inactive).

Question: What about the GI50 [21] of the same compound?
Answer: The GI50 was 39.9 µM (inactive).

Question: And the GI50 [22]?
Answer: Its GI50 is 92.5 µM (inactive).

Question: What about the GI50 [23] of the same compound?
Answer: Its GI50 is 25.7 µM (inactive).

Question: What about the GI50 [24] of the same compound?
Answer: Its GI50 is 21.8 µM (inactive).

Question: And the GI50 [25]?
Answer: Its GI50 is 56.1 µM (inactive).

Question: What about the GI50 [26] of the same compound?
Answer: The GI50 was 38.9 µM (inactive).

Question: And the GI50 [27]?
Answer: The GI50 was 45.6 µM (inactive).

Question: And the GI50 [28]?
Answer: Its GI50 is 34 µM (inactive).

Question: And the GI50 [29]?
Answer: Its GI50 is 34.1 µM (inactive).

Question: And the GI50 [30]?
Answer: The GI50 was 97.5 µM (inactive).

Question: And the GI50 [31]?
Answer: The GI50 was 19.4 µM (inactive).

Question: And the GI50 [32]?
Answer: The GI50 was > 100 µM (inactive).

Question: And the GI50 [33]?
Answer: The GI50 was 22.5 µM (inactive).

Question: What about the GI50 [34] of the same compound?
Answer: Its GI50 is 20.2 µM (inactive).

Question: And the GI50 [35]?
Answer: The GI50 was 37.1 µM (inactive).

Question: What about the GI50 [36] of the same compound?
Answer: Its GI50 is 16.8 µM (inactive).

Question: And the GI50 [37]?
Answer: The GI50 was 59.7 µM (inactive).

Question: And the GI50 [38]?
Answer: The GI50 was 40.9 µM (inactive).

Question: What about the GI50 [39] of the same compound?
Answer: The GI50 was 17.8 µM (inactive).

Question: What about the GI50 [40] of the same compound?
Answer: Its GI50 is 22.1 µM (inactive).

Question: And the GI50 [41]?
Answer: The GI50 was 98.9 µM (inactive).

Question: What about the GI50 [42] of the same compound?
Answer: The GI50 was 41.1 µM (inactive).

Question: And the GI50 [43]?
Answer: Its GI50 is 20.6 µM (inactive).

Question: And the GI50 [44]?
Answer: Its GI50 is 57.1 µM (inactive).

Question: What about the GI50 [45] of the same compound?
Answer: Its GI50 is > 100 µM (inactive).

Question: What about the GI50 [46] of the same compound?
Answer: Its GI50 is 23.9 µM (inactive).

Question: What about the GI50 [47] of the same compound?
Answer: Its GI50 is 18.5 µM (inactive).

Question: And the GI50 [48]?
Answer: Its GI50 is 46.9 µM (inactive).

Question: What about the GI50 [49] of the same compound?
Answer: Its GI50 is 16.6 µM (inactive).

Question: What about the GI50 [50] of the same compound?
Answer: Its GI50 is 27.7 µM (inactive).

Question: What does the source list for `CC1(C)CCC2=C(O1)/C(=N\Nc1ccc(S(N)(=O)=O)cc1)c1ccccc1C2=O`?
Answer: GI50 [1]: 7.5 µM (inactive); GI50 [2]: 2.37 µM (inactive); GI50 [51]: 14.6 µM (inactive); GI50 [3]: 19.8 µM (inactive); GI50 [52]: 13.1 µM (inactive); GI50 [4]: 14.8 µM (inactive); GI50 [53]: 11.3 µM (inactive); GI50 [5]: 20.3 µM (inactive); GI50 [54]: 12.5 µM (inactive); GI50 [8]: 16.7 µM (inactive); GI50 [9]: 5.25 µM (inactive); GI50 [10]: 11.6 µM (inactive); GI50 [11]: 19.2 µM; GI50 [55]: 15.1 µM (inactive); GI50 [13]: 7.8 µM (inactive); GI50 [14]: 12.4 µM (inactive); GI50 [15]: 14.7 µM (inactive); GI50 [56]: 3.13 µM (inactive); GI50 [16]: 14.2 µM (inactive); GI50 [17]: 28.4 µM (inactive); GI50 [19]: 10.5 µM (inactive); GI50 [20]: 4.41 µM (inactive); GI50 [22]: 16.1 µM (inactive); GI50 [57]: 13.5 µM (inactive); GI50 [58]: 2.56 µM (inactive); GI50 [59]: 10.7 µM (inactive); GI50 [60]: 2.84 µM (inactive); GI50 [61]: 27.4 µM (inactive); GI50 [23]: 3.3 µM (inactive); GI50 [24]: 4.99 µM (inactive); GI50 [25]: 6.55 µM (inactive); GI50 [26]: 12 µM (inactive); GI50 [27]: 12.1 µM (inactive); GI50 [62]: 20.2 µM (inactive); GI50 [28]: 16.7 µM (inactive); GI50 [29]: 5.81 µM (inactive); GI50 [30]: 18.1 µM (inactive); GI50 [31]: 10.6 µM (inactive); GI50 [63]: 13.6 µM (inactive); GI50 [32]: 27.6 µM (inactive); GI50 [33]: 5.37 µM (inactive); GI50 [34]: 11 µM (inactive); GI50 [35]: 11.8 µM (inactive); GI50 [36]: 10.4 µM (inactive); GI50 [37]: 18.7 µM (inactive); GI50 [38]: 11.9 µM (inactive); GI50 [39]: 1.81 µM (inactive); GI50 [40]: 4.15 µM (inactive); GI50 [41]: 11.2 µM (inactive); GI50 [42]: 16.2 µM (inactive); GI50 [43]: 4.38 µM (inactive); GI50 [64]: 5.61 µM (inactive); GI50 [45]: 20.7 µM (inactive); GI50 [65]: 15.6 µM (inactive); GI50 [46]: 14.5 µM (inactive); GI50 [47]: 8.73 µM (inactive); GI50 [48]: 9.55 µM (inactive); GI50 [49]: 18.2 µM (inactive); GI50 [50]: 18.2 µM (inactive)

Question: What does the source list for `CC1(C)OC(COP2OCCO2)[C@H](COP2OCCO2)O1` (some centres undefined)?
Answer: GI50 [2]: > 100 µM (inactive); GI50 [51]: > 100 µM (inactive); GI50 [3]: > 100 µM (inactive); GI50 [53]: > 100 µM (inactive); GI50 [6]: > 100 µM (inactive); GI50 [7]: > 100 µM (inactive); GI50 [10]: > 100 µM (inactive); GI50 [11]: > 100 µM; GI50 [55]: > 100 µM (inactive); GI50 [12]: > 100 µM (inactive); GI50 [15]: > 100 µM (inactive); GI50 [16]: 31 µM (inactive); GI50 [17]: > 100 µM (inactive); GI50 [19]: > 100 µM (inactive); GI50 [20]: > 100 µM (inactive); GI50 [21]: > 100 µM (inactive); GI50 [22]: > 100 µM (inactive); GI50 [66]: > 100 µM (inactive); GI50 [61]: > 100 µM (inactive); GI50 [23]: > 100 µM (inactive); GI50 [24]: > 100 µM (inactive); GI50 [25]: > 100 µM (inactive); GI50 [26]: > 100 µM (inactive); GI50 [28]: > 100 µM (inactive); GI50 [29]: > 100 µM (inactive); GI50 [31]: > 100 µM (inactive); GI50 [33]: > 100 µM (inactive); GI50 [34]: > 100 µM (inactive); GI50 [35]: > 100 µM (inactive); GI50 [36]: > 100 µM (inactive); GI50 [37]: > 100 µM (inactive); GI50 [38]: > 100 µM (inactive); GI50 [39]: > 100 µM (inactive); GI50 [41]: > 100 µM (inactive); GI50 [43]: > 100 µM (inactive); GI50 [44]: > 100 µM (inactive); GI50 [45]: > 100 µM (inactive); GI50 [46]: > 100 µM (inactive); GI50 [48]: > 100 µM (inactive); GI50 [49]: > 100 µM (inactive)
